Assay results taken from PubChem BioAssay AID652241 (Broad Institute, 2013).
Records with an inconclusive call do not appear. Active and inactive are the calls of the source.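 How the source made its calls: active means fitted curve reaches activity 50 in the expected rising direction at or below the top valid tested dose; inconclusive means no clear call, values can overlap the other calls; inactive means activity in the wrong direction, and the rest.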

Each molecule was assayed against Virion infectivity factor (Human immunodeficiency virus type 1 group M subtype B (isolate BH10)) + Virion infectivity factor (Human immunodeficiency virus type 1 group M subtype B (isolate BRU/LAI)) + Virion infectivity factor (Human immunodeficiency virus type 1 group M subtype B (isolate PCV12)) + Virion infectivity factor (Human immunodeficiency virus type 1 group M subtype B (isolate HXB2)) (UniProt P69720+P69721+P69722+P69723) (assay: dose-dependent disruption of HIV Vif self-association – imaging, HEK293T, cherry-picks, dose response (AID 652241;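 further: imaged cell signal that rises when Vif self-association is disrupted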)). Conditions: HEK293T Vif multimerization imaging, 24 h.
Sequence of Virion infectivity factor (Human immunodeficiency virus type 1 group M subtype B (isolate BH10)) + Virion infectivity factor (Human immunodeficiency virus type 1 group M subtype B (isolate BRU/LAI)) + Virion infectivity factor (Human immunodeficiency virus type 1 group M subtype B (isolate PCV12)) + Virion infectivity factor (Human immunodeficiency virus type 1 group M subtype B (isolate HXB2)) (P69720 whole entry, looked up): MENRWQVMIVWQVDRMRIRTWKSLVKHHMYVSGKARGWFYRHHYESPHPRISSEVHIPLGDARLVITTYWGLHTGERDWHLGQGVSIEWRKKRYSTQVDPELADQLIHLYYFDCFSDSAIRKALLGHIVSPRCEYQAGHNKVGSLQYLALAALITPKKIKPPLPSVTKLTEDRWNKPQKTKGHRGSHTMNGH
Sequence of Virion infectivity factor (Human immunodeficiency virus type 1 group M subtype B (isolate BH10)) + Virion infectivity factor (Human immunodeficiency virus type 1 group M subtype B (isolate BRU/LAI)) + Virion infectivity factor (Human immunodeficiency virus type 1 group M subtype B (isolate PCV12)) + Virion infectivity factor (Human immunodeficiency virus type 1 group M subtype B (isolate HXB2)) (P69721 whole entry, looked up): as the sequence (P69720 whole entry, looked up) above
Sequence of Virion infectivity factor (Human immunodeficiency virus type 1 group M subtype B (isolate BH10)) + Virion infectivity factor (Human immunodeficiency virus type 1 group M subtype B (isolate BRU/LAI)) + Virion infectivity factor (Human immunodeficiency virus type 1 group M subtype B (isolate PCV12)) + Virion infectivity factor (Human immunodeficiency virus type 1 group M subtype B (isolate HXB2)) (P69722 whole entry, looked up): as the sequence (P69720 whole entry, looked up) above
Sequence of Virion infectivity factor (Human immunodeficiency virus type 1 group M subtype B (isolate BH10)) + Virion infectivity factor (Human immunodeficiency virus type 1 group M subtype B (isolate BRU/LAI)) + Virion infectivity factor (Human immunodeficiency virus type 1 group M subtype B (isolate PCV12)) + Virion infectivity factor (Human immunodeficiency virus type 1 group M subtype B (isolate HXB2)) (P69723 whole entry, looked up): as the sequence (P69720 whole entry, looked up) above
`Cc1nnc2ccc(-c3cccc(NS(=O)(=O)c4ccccc4Cl)c3)nn12` was tested, and the AC50 was 14.1 µM. `Cn1c(=O)[nH]c(=O)c2c1nc([N+](=O)[O-])n2Cc1ccccc1` showed an AC50 of 5.03 µM. With `CCOc1ccc(Nc2nc3c(C)cccc3cc2C#N)cc1` the AC50 was 11.9 µM. Work on `COc1cccc(-c2cc(=O)c3cc(NC(=O)c4ccccc4)ccc3[nH]2)c1` yielded an AC50 of 5.04 µM. For `CCN(CC)c1ccc2cc(C(N)=O)c(=O)oc2c1`, the AC50 was > 19.5 µM (inactive). With `CCOC(=O)c1cc(-c2ccccc2)sc1NC(=O)COC(=O)c1cccc(S(N)(=O)=O)c1` the AC50 was 16.1 µM. Work on `FC(F)(F)c1nnc2c3ccccc3c(Cl)nn12` yielded an AC50 of 12.5 µM. For `Cc1cc(Cl)n2c(nc3cc(F)c(F)cc32)c1C#N`, the AC50 was 5.68 µM. For `COc1ccc(-c2cc(C(=O)Nc3cnn(Cc4ccccc4C)c3)no2)cc1OC`, the AC50 was 16.3 µM. In the case of `CC(C)OC(=O)c1ccc(NCc2cc(O)ccc2O)cc1Cl`, the AC50 is reported as 5 µM. Work on `COc1ccccc1C1C2=C(COC2=O)Nc2cc3c(cc21)OCO3` (centres undefined) yielded an AC50 of 1.99 µM. In the case of `O=C(NC1(C(F)(F)F)Oc2ccc(Cl)cc2O1)N1CCC2(CC1)OCCO2` (centres undefined), the AC50 is reported as 7.65 µM. Work on `COc1cccc(N2CCN(C(=O)c3ccc(CS(=O)c4ccc(C)cc4)o3)CC2)c1` (centres undefined) yielded an AC50 of 12.9 µM. Molecule `Cc1cc(C)cc(NC(=O)CCc2nc3sc4c(c3c(=O)[nH]2)CCCC4)c1` has an AC50 of 14.6 µM. `CCc1ccc(S(=O)(=O)Nc2ccc(-c3ccc4nnc(C)n4n3)cc2)s1` showed an AC50 of 11.4 µM. `Cc1ccc(CNC(=O)c2cccc3c2C(=O)c2ccc(N4CCC(C)CC4)cc2S3(=O)=O)cc1` was tested, and the AC50 was 14.4 µM. `CCOc1ccccc1NC(=O)Cn1nnc(C(=O)NCc2cccs2)c1N` showed an AC50 of 5.28 µM. With `COc1cc(-c2cc(=O)c3c(O)c(OC)c(OC)c(O)c3o2)ccc1O` the AC50 was > 19.5 µM (inactive). For `CCOc1c(C(N)=O)c(-c2ccccc2)c2c(=O)[nH]c3ccccc3n12`, the AC50 was > 19.5 µM (inactive). `COc1ccc(S(=O)(=O)Nc2cc3c(C(C)=O)c(C)oc3c3ccccc23)cc1` was tested, and the AC50 was 9.23 µM. For `O=C(NCc1ccccc1C(F)(F)F)c1cccc2c1C(=O)c1ccc(N3CCCCC3)cc1S2(=O)=O`, the AC50 was 14.1 µM. For `Cc1nnc2ccc(-c3ccc(NS(=O)(=O)c4ccc(F)cc4F)cc3)nn12`, the AC50 was > 19.5 µM (inactive).

Same assay, conditions: HEK293T Vif multimerization imaging, 24 h; at 2.1 µM (top of the series)
For `Cc1nc(NC(=O)C(C)Oc2cccc(Cl)c2)sc1C(=O)N(C)C` (centres undefined), the “activity, higher = inhibition” value was “inactive”.

Same assay, conditions: HEK293T Vif multimerization imaging, 24 h; at 6.8 µM (top of the series)
With `Cc1nc(C)n(CC(=O)N2CCCC(C(=O)c3ccc(C(F)(F)F)cc3)C2)n1` (centres undefined) the “activity, higher = inhibition” value was “inactive”. For `Oc1[nH]c(=S)sc1/C=C1\C(c2ccccc2)=Nc2ccccc21`, the “activity, higher = inhibition” value was “inactive”. `CCc1cccc2cc3c(N)c(C(=O)Nc4ccc(S(=O)(=O)N5CCCC5)cc4)sc3nc12` was tested, and the “activity, higher = inhibition” value was “inactive”. With `CCCN1C(=O)/C(=C\C=C2\N(CC)c3ccccc3C2(C)C)SC1=S` the “activity, higher = inhibition” value was “inactive”.

Same assay, conditions: HEK293T Vif multimerization imaging, 24 h; at 19.5 µM (top of the series)
In the case of `C[C@@H]1CN([C@H](C)CO)C(=O)CCCn2cc(nn2)CO[C@H]1CN(C)C(=O)c1ccccc1`, the “activity, higher = inhibition” value is reported as “inactive”. With `O=c1sc(N2CCN(c3ccc(F)cc3)CC2)nc2ccsc12` the “activity, higher = inhibition” value was “inactive”. For `Nc1nc(-c2ccc3ccccc3c2)cs1`, the “activity, higher = inhibition” value was “inactive”. For `Cc1c(NC(=O)c2cc3ccccc3oc2=O)c(=O)n(-c2ccccc2)n1C`, the “activity, higher = inhibition” value was “inactive”. `COc1cc(NC(=O)c2ccc(C)cc2C)ccc1NC(=O)c1cccs1` was tested, and the “activity, higher = inhibition” value was “inactive”. With `COc1ccccc1C(C)NC(=O)Cc1ccsc1` (centres undefined) the “activity, higher = inhibition” value was “inactive”. With `CCOC(=O)C1CCCN(C(=O)c2cc(S(=O)(=O)N(C)C)ccc2N2CCCC2)C1` (centres undefined) the “activity, higher = inhibition” value was “inactive”. In the case of `O=C(CCNC(=O)c1ccco1)Nc1ccc(OC(F)(F)F)cc1`, the “activity, higher = inhibition” value is reported as “inactive”. `CN1CCc2nc3ccc(F)cc3c(C(N)=O)c2C1` was tested, and the “activity, higher = inhibition” value was “inactive”. `COc1ccc(CN2C3CCC2CC(NC(=O)c2cc(OC)c(OC)c(OC)c2)C3)cc1` (centres undefined) was tested, and the “activity, higher = inhibition” value was “inactive”. With `O=C(c1cc(COc2cccc3cccnc23)on1)N1CCC[C@H]1CO` the “activity, higher = inhibition” value was “inactive”. For `CC(C)OCCCNc1ncnc2c1[nH]c1ccc(F)cc12`, the “activity, higher = inhibition” value was “inactive”. For `Cc1cc(NC(=O)CSc2nc3ccccc3c(=O)n2-c2ccccc2)no1`, the “activity, higher = inhibition” value was “inactive”. `CCN(C(=O)COc1ccc(C)cc1OC)c1cccc2ccccc12` was tested, and the “activity, higher = inhibition” value was “inactive”. `COc1ccc(C(=O)Nc2c(Cl)cc(Cl)cc2C(=O)N2CCOCC2)cc1` was tested, and the “activity, higher = inhibition” value was “inactive”. In the case of `CCOC(=O)c1c(NC(=O)CCC(=O)N2CCOCC2)sc2c1CC(C)(C)OC2`, the “activity, higher = inhibition” value is reported as “inactive”. For `COc1ccc(Br)cc1C(=O)Nc1ccc(N2CCCC2)cc1`, the “activity, higher = inhibition” value was “inactive”. For `Nc1nonc1-c1nc2ccccc2n1CC(=O)NC1CCCC1`, the “activity, higher = inhibition” value was “inactive”. For `CCC(C)NC(=O)Cn1c(=O)n(-c2ccccc2)c(=O)c2ccc(C(=O)NCc3ccco3)cc21` (centres undefined), the “activity, higher = inhibition” value was “inactive”. `CC(C)CN(C(=O)COC(=O)CSc1ccccc1)c1c(N)n(Cc2ccccc2)c(=O)[nH]c1=O` was tested, and the “activity, higher = inhibition” value was “inactive”. `NS(=O)(=O)c1ccc(-c2ccc(/C=C3\SC(=O)NC3=O)o2)cc1` was tested, and the “activity, higher = inhibition” value was “inactive”. For `S=C(Nc1ccccc1)N1CCn2c(nc3ccccc32)C1`, the “activity, higher = inhibition” value was “inactive”. `COc1ccccc1Oc1coc2cc(OCC(N)=O)ccc2c1=O` was tested, and the “activity, higher = inhibition” value was “inactive”. In the case of `Cc1cc(C)c(S(=O)(=O)N2CCN(S(=O)(=O)N3CCOCC3)CC2)c(C)c1`, the “activity, higher = inhibition” value is reported as “inactive”. For `CCOc1ccc(C(C)=O)cc1COC(=O)c1cc([N+](=O)[O-])ccc1N1CCOCC1`, the “activity, higher = inhibition” value was “inactive”. `CNC(=O)COc1ccccc1C(=O)Nc1ccc2c(c1)oc1ccccc12` was tested, and the “activity, higher = inhibition” value was “inactive”. For `C=CCNc1sc(C(=O)c2ccc(Br)s2)c(N)c1C#N`, the “activity, higher = inhibition” value was “inactive”. With `O=C(CSc1ncccn1)NC(=O)Nc1ccc2c(c1)OCCO2` the “activity, higher = inhibition” value was “inactive”. With `CC(C)(C)NC(=O)NC(=O)COc1ccccn1` the “activity, higher = inhibition” value was “inactive”. `COc1cccc(N2CCN(S(=O)(=O)c3cc4c(cc3C)N(C)CCO4)CC2)c1` was tested, and the “activity, higher = inhibition” value was “inactive”. `Cc1ccc(N(C)S(=O)(=O)c2ccc(-c3ccc(=O)[nH]n3)s2)cc1C` was tested, and the “activity, higher = inhibition” value was “inactive”. For `CCC(=O)Nc1ccc(-c2nnc(SCc3ccc(C(=O)Nc4nccs4)cc3)n2CC)cc1`, the “activity, higher = inhibition” value was “inactive”. In the case of `O=C(Nc1ccc2c(c1)nc1n2CCOC1)c1ccccc1`, the “activity, higher = inhibition” value is reported as “inactive”. In the case of `O=C(NCC1CC1)NC(=O)c1c(F)cccc1Cl`, the “activity, higher = inhibition” value is reported as “inactive”. For `COc1ccc(CC(=O)OCC(=O)NCc2ccc(Cl)cc2)cc1`, the “activity, higher = inhibition” value was “inactive”. With `CC(C)OC(=O)c1cn(-c2ccccc2)nc1-c1ccc2c(c1)OCCO2` the “activity, higher = inhibition” value was “inactive”. `O=C(CCN1CCOCC1)Nc1ccc(Cl)cc1` was tested, and the “activity, higher = inhibition” value was “inactive”. `O=C(Cn1ncc2c3ccccc3n(Cc3cccc(Cl)c3)c2c1=O)N1CCC2(CC1)OCCO2` was tested, and the “activity, higher = inhibition” value was “inactive”. In the case of `COC(=O)c1ccc2c(=O)n(Cc3ccco3)c(SCC(=O)Nc3cc(C)on3)nc2c1`, the “activity, higher = inhibition” value is reported as “inactive”. With `COc1ccc(OC)c(NC(=O)c2nc(-c3ccccc3)oc2C)c1` the “activity, higher = inhibition” value was “inactive”. With `COCCNCC(=O)Nc1nc(C)cs1` the “activity, higher = inhibition” value was “inactive”. `CN1CCN(C(=S)c2ccc(OCC(=O)Nc3cccc(C(F)(F)F)c3)cc2)CC1` was tested, and the “activity, higher = inhibition” value was “inactive”. In the case of `CCC(=O)N(CCC1(C(C)C)CCOC(C)(C)C1)Cc1ccco1` (centres undefined), the “activity, higher = inhibition” value is reported as “inactive”. For `O=c1[nH]c(=O)n(Cc2ccco2)c2c1C(C(F)(F)F)(C(F)(F)F)N=C(c1ccco1)N2`, the “activity, higher = inhibition” value was “inactive”. With `COc1cc(C(C)=O)ccc1OCC(=O)NCC1(N2CCCCC2)CCCCC1` the “activity, higher = inhibition” value was “inactive”. In the case of `NS(=O)(=O)c1ccc(NC(=O)CCC(=O)N2CCOCC2)cc1`, the “activity, higher = inhibition” value is reported as “inactive”. In the case of `CSc1ccc(CN(C)CC(=O)NCCc2ccccc2)cc1`, the “activity, higher = inhibition” value is reported as “inactive”. With `CCN(CC(=O)Nc1c(F)cccc1F)C(=O)c1cccc(-n2cccc2)c1` the “activity, higher = inhibition” value was “inactive”. For `CC(C)C(=O)N=C1SC2CS(=O)(=O)CC2N1Cc1ccccc1` (centres undefined), the “activity, higher = inhibition” value was “inactive”. With `COc1ccc(CNC(=O)Nc2cccs2)cc1OC` the “activity, higher = inhibition” value was “inactive”. With `O=C(Nc1ccnc(-c2cccnc2)n1)c1cccs1` the “activity, higher = inhibition” value was “inactive”. `CC(C(=O)O)c1ccc(N2Cc3ccccc3C2=O)cc1` (centres undefined) was tested, and the “activity, higher = inhibition” value was “inactive”. In the case of `CC(Cc1ccc(O)cc1)NCC(O)c1cc(O)cc(O)c1` (centres undefined), the “activity, higher = inhibition” value is reported as “inactive”. For `Cc1ccc(C(C)C)c(OCC#CCN2CCOCC2)c1`, the “activity, higher = inhibition” value was “inactive”. For `O=C(Cc1ccccc1)OCC(=O)c1ccc(F)cc1`, the “activity, higher = inhibition” value was “inactive”. `COc1ccc(C(=O)NCc2oc(-c3ccccc3)cc2C(=O)O)cc1` was tested, and the “activity, higher = inhibition” value was “inactive”. For `COc1ccc(CC(NC(C)=O)C(=O)NC2CCN(C(=O)c3ccccc3F)CC2)cc1` (centres undefined), the “activity, higher = inhibition” value was “inactive”. With `CC(C)CN1C(=O)C(=O)N(CC(=O)c2ccc3c(c2)OCO3)C1=O` the “activity, higher = inhibition” value was “inactive”. For `CCOC(=O)C1CCN(S(=O)(=O)c2cccc(-c3cn4cc(C)ccc4n3)c2)CC1`, the “activity, higher = inhibition” value was “inactive”. `CCN(CC)C(=O)c1cccc(NC(=O)C2=COCCO2)c1` was tested, and the “activity, higher = inhibition” value was “inactive”. `CCN1C(=O)c2cccc3c(S(=O)(=O)Nc4ccccc4O)ccc1c23` was tested, and the “activity, higher = inhibition” value was “inactive”. For `O=C(c1ccc2c(c1)OCO2)N(CC1CCCO1)C1(C(=O)NC2CCCC2)CCCCC1` (centres undefined), the “activity, higher = inhibition” value was “inactive”. For `CCOC(=O)C1=C(C)NC(=O)NC1`, the “activity, higher = inhibition” value was “inactive”. With `O=C(O)/C=C/C(=O)Nc1cccc(C(F)(F)F)c1` the “activity, higher = inhibition” value was “inactive”. In the case of `Cc1ccnc(SCC(=O)n2c3c(c4ccccc42)CC(C)CC3)n1` (centres undefined), the “activity, higher = inhibition” value is reported as “inactive”. In the case of `Cc1ccc(NC(=O)Cn2ncn3c(cc4ccccc43)c2=O)c(C)c1`, the “activity, higher = inhibition” value is reported as “inactive”. `Cc1ccc(-n2nnc3c(=O)n(CC(=O)OCc4ccccc4)cnc32)cc1` was tested, and the “activity, higher = inhibition” value was “inactive”.
